Measurements reported in ChEMBL document CHEMBL2375290, “Nonclassical antifolates, part 3: synthesis, biological evaluation and molecular modeling study of some new 2-heteroarylthio-quinazolin-4-ones” (Eur J Med Chem, 2013).

What was measured:
Micrococcus luteus = assay: Antimicrobial activity against Micrococcus luteus at 200 ug after 24 hrs by agar disc diffusion method; type: functional; details: read-out: DIZ
SNB-75 = assay: Cytotoxicity against human SNB75 cells at 10 uM after 48 hrs by coulter counter analysis; type: functional; details: SNB-75, 48 h, read-out: GI
SR = assay: Cytotoxicity against human SR cells at 10 uM after 48 hrs by coulter counter analysis; type: functional; details: read-out: GI
Dihydrofolate reductase = target: T1, Dihydrofolate reductase (Bos taurus, UniProt P00376); assay: Inhibition of bovine DHFR after 2 mins by spectrophotometry
T1 sequence (P00376 whole entry): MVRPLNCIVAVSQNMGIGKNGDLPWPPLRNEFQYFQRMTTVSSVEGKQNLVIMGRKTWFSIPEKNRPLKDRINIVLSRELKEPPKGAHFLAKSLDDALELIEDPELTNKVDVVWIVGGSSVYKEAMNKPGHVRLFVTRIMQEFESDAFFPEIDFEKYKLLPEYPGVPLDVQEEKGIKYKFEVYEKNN

OVCAR-4 = assay: Cytotoxicity against human OVCAR4 cells at 10 uM after 48 hrs by coulter counter analysis; type: functional; details: OVCAR-4, 48 h, read-out: GI
RXF 393 = assay: Cytotoxicity against human RXF393 cells at 10 uM after 48 hrs by coulter counter analysis; type: functional; details: RXF 393, 48 h, read-out: GI
PC-3 = assay: Cytotoxicity against human PC3 cells at 10 uM after 48 hrs by coulter counter analysis; type: functional; details: PC-3, 48 h, read-out: GI
Escherichia coli = assay: Antimicrobial activity against Escherichia coli at 200 ug after 24 hrs by agar disc diffusion method; type: functional; details: read-out: DIZ
RPMI-8226 = assay: Cytotoxicity against human RPMI8226 cells at 10 uM after 48 hrs by coulter counter analysis; type: functional; details: RPMI-8226, 48 h, read-out: GI
[1] = Cytotoxicity against human NCI-ADR-RES cells at 10 uM after 48 hrs by coulter counter analysis; type: functional; details: read-out: GI
A498 = assay: Cytotoxicity against human A498 cells at 10 uM after 48 hrs by coulter counter analysis; type: functional; details: A498, 48 h, read-out: GI
[2] = Cytotoxicity against human EKVX cells at 10 uM after 48 hrs by coulter counter analysis; type: functional; details: read-out: GI
Hs-578T = assay: Cytotoxicity against human Hs578T cells at 10 uM after 48 hrs by coulter counter analysis; type: functional; details: read-out: GI
SK-MEL-5 = assay: Cytotoxicity against human SK-MEL-5 cells at 10 uM after 48 hrs by coulter counter analysis; type: functional; details: SK-MEL-5, 48 h, read-out: GI
IGROV-1 = assay: Cytotoxicity against human IGROV1 cells at 10 uM after 48 hrs by coulter counter analysis; type: functional; details: IGROV-1, 48 h, read-out: GI
HL-60(TB) = assay: Cytotoxicity against human HL-60(TB) cells at 10 uM after 48 hrs by coulter counter analysis; type: functional; details: HL-60, 48 h, read-out: GI
Staphylococcus aureus = assay: Antimicrobial activity against Staphylococcus aureus at 200 ug after 24 hrs by agar disc diffusion method; type: functional; details: read-out: DIZ
Pseudomonas aeruginosa = assay: Antimicrobial activity against Pseudomonas aeruginosa at 200 ug after 24 hrs by agar disc diffusion method; type: functional; details: read-out: DIZ
T47D = assay: Cytotoxicity against human T47D cells at 10 uM after 48 hrs by coulter counter analysis; type: functional; details: read-out: GI
Bacillus subtilis = assay: Antimicrobial activity against Bacillus subtilis at 200 ug after 24 hrs by agar disc diffusion method; type: functional; details: read-out: DIZ
SN12C = assay: Cytotoxicity against human SN12C cells at 10 uM after 48 hrs by coulter counter analysis; type: functional; details: read-out: GI
Malme-3M = assay: Cytotoxicity against human MALME-3M cells at 10 uM after 48 hrs by coulter counter analysis; type: functional; details: read-out: GI
NCI-H23 = assay: Cytotoxicity against human NCI-H23 cells at 10 uM after 48 hrs by coulter counter analysis; type: functional; details: NCI-H23, 48 h, read-out: GI
UACC-62 = assay: Cytotoxicity against human UACC62 cells at 10 uM after 48 hrs by coulter counter analysis; type: functional; details: UACC-62, 48 h, read-out: GI
MCF7 = assay: Cytotoxicity against human MCF7 cells at 10 uM after 48 hrs by coulter counter analysis; type: functional; details: MCF7, 48 h, read-out: GI
NCI-H522 = assay: Cytotoxicity against human NCI-H522 cells at 10 uM after 48 hrs by coulter counter analysis; type: functional; details: NCI-H522, 48 h, read-out: GI
SNB-19 = assay: Cytotoxicity against human SNB19 cells at 10 uM after 48 hrs by coulter counter analysis; type: functional; details: SNB-19, 48 h, read-out: GI
LOX IMVI = assay: Cytotoxicity against human LOXIMVI cells at 10 uM after 48 hrs by coulter counter analysis; type: functional; details: read-out: GI
A549 = assay: Cytotoxicity against human A549/ATCC cells at 10 uM after 48 hrs by coulter counter analysis; type: functional; details: A549, 48 h, read-out: GI
NCI-H226 = assay: Cytotoxicity against human NCI-H226 cells at 10 uM after 48 hrs by coulter counter analysis; type: functional; details: NCI-H226, 48 h, read-out: GI
CAKI-1 = assay: Cytotoxicity against human Caki1 cells at 10 uM after 48 hrs by coulter counter analysis; type: functional; details: CAKI-1, 48 h, read-out: GI
MOLT-4 = assay: Cytotoxicity against human MOLT4 cells at 10 uM after 48 hrs by coulter counter analysis; type: functional; details: MOLT-4, 48 h, read-out: GI
MDA-MB-231 = assay: Cytotoxicity against human MDA-MB-231 cells at 10 uM after 48 hrs by coulter counter analysis; type: functional; details: MDA-MB-231, 48 h, read-out: GI
UO-31 = assay: Cytotoxicity against human UO31 cells at 10 uM after 48 hrs by coulter counter analysis; type: functional; details: UO-31, 48 h, read-out: GI
CCRF-CEM = assay: Cytotoxicity against human CCRF-CEM cells at 10 uM after 48 hrs by coulter counter analysis; type: functional; details: read-out: GI
MDA-MB-435 = assay: Cytotoxicity against human MDA-MB-435 cells at 10 uM after 48 hrs by coulter counter analysis; type: functional; details: MDA-MB-435, 48 h, read-out: GI
SF-295 = assay: Cytotoxicity against human SF295 cells at 10 uM after 48 hrs by coulter counter analysis; type: functional; details: SF-295, 48 h, read-out: GI

SMILES	zone of inhibition at 200 µg/disc (Micrococcus luteus) [mm]	inhibition of growth at 10 µM (SNB-75) [%]	inhibition of growth at 10 µM (SR) [%]	IC50 (Dihydrofolate reductase) [µM]	inhibition of growth at 10 µM (OVCAR-4) [%]	inhibition of growth at 10 µM (RXF 393) [%]	inhibition of growth at 10 µM (PC-3) [%]	zone of inhibition at 200 µg/disc (Escherichia coli) [mm]	inhibition of growth at 10 µM (RPMI-8226) [%]	inhibition of growth at 10 µM [1] [%]	inhibition of growth at 10 µM (A498) [%]	inhibition of growth at 10 µM [2] [%]	inhibition of growth at 10 µM (Hs-578T) [%]	inhibition of growth at 10 µM (SK-MEL-5) [%]	inhibition of growth at 10 µM (IGROV-1) [%]	inhibition of growth at 10 µM (HL-60(TB)) [%]	zone of inhibition at 200 µg/disc (Staphylococcus aureus) [mm]	zone of inhibition at 200 µg/disc (Pseudomonas aeruginosa) [mm]	inhibition of growth at 10 µM (T47D) [%]	zone of inhibition at 200 µg/disc (Bacillus subtilis) [mm]	also measured
COc1cc2nc(Sc3cnc(N)s3)n(Cc3ccccc3)c(=O)c2cc1OC	8	13.3	< 10	3	< 10	< 10	22.4	16	15.9	< 10	< 10	16.1	< 10	12.9	< 10	< 10	17	8	< 10	18	inhibition of growth at 10 µM (SN12C): < 10%; inhibition of growth at 10 µM (Malme-3M): < 10%; inhibition of growth at 10 µM (NCI-H23): < 10%; inhibition of growth at 10 µM (UACC-62): < 10%; inhibition of growth at 10 µM (MCF7): < 10%; inhibition of growth at 10 µM (NCI-H522): 19.8%; inhibition of growth at 10 µM (SNB-19): < 10%; inhibition of growth at 10 µM (LOX IMVI): 10.8%; inhibition of growth at 10 µM (A549): < 10%; inhibition of growth at 10 µM (NCI-H226): 10.4%; inhibition of growth at 10 µM (CAKI-1): 25.4%; inhibition of growth at 10 µM (MOLT-4): < 10%; inhibition of growth at 10 µM (MDA-MB-231): 19.1%; inhibition of growth at 10 µM (UO-31): 17.4%; inhibition of growth at 10 µM (CCRF-CEM): 22.8%; inhibition of growth at 10 µM (MDA-MB-435): < 10%; inhibition of growth at 10 µM (SF-295): < 10%
O=C(O)c1cccnc1Sc1nc2ccc(Cl)cc2c(=O)n1Cc1ccccc1	8	18.4	32.8	10	20.6	< 10	25.2	8	16.3	< 10	< 10	25.4	< 10	< 10	14.7	< 10	14	8	14.1	18	inhibition of growth at 10 µM (SN12C): < 10%; inhibition of growth at 10 µM (Malme-3M): < 10%; inhibition of growth at 10 µM (NCI-H23): < 10%; inhibition of growth at 10 µM (UACC-62): 16.7%; inhibition of growth at 10 µM (MCF7): < 10%; inhibition of growth at 10 µM (NCI-H522): 13.1%; inhibition of growth at 10 µM (SNB-19): < 10%; inhibition of growth at 10 µM (LOX IMVI): 13.6%; inhibition of growth at 10 µM (A549): < 10%; inhibition of growth at 10 µM (NCI-H226): 18.4%; inhibition of growth at 10 µM (CAKI-1): 30.3%; inhibition of growth at 10 µM (MOLT-4): 16.7%; inhibition of growth at 10 µM (MDA-MB-231): 24.7%; inhibition of growth at 10 µM (UO-31): 20.3%; inhibition of growth at 10 µM (CCRF-CEM): 17.8%; inhibition of growth at 10 µM (MDA-MB-435): < 10%; inhibition of growth at 10 µM (SF-295): 15.7%
O=C(O)c1cccnc1Sc1nc2ccc(Cl)cc2c(=O)n1-c1ccccc1	8	< 10	< 10	8	< 10	< 10	< 10	8	< 10	< 10	< 10	< 10	< 10	< 10	< 10	< 10	15	8	15	16	inhibition of growth at 10 µM (SN12C): < 10%; inhibition of growth at 10 µM (Malme-3M): < 10%; inhibition of growth at 10 µM (NCI-H23): < 10%; inhibition of growth at 10 µM (UACC-62): < 10%; inhibition of growth at 10 µM (MCF7): < 10%; inhibition of growth at 10 µM (NCI-H522): < 10%; inhibition of growth at 10 µM (SNB-19): < 10%; inhibition of growth at 10 µM (LOX IMVI): < 10%; inhibition of growth at 10 µM (A549): < 10%; inhibition of growth at 10 µM (NCI-H226): 15.1%; inhibition of growth at 10 µM (CAKI-1): < 10%; inhibition of growth at 10 µM (MOLT-4): < 10%; inhibition of growth at 10 µM (MDA-MB-231): 10.4%; inhibition of growth at 10 µM (UO-31): 20.5%; inhibition of growth at 10 µM (CCRF-CEM): < 10%; inhibition of growth at 10 µM (MDA-MB-435): < 10%; inhibition of growth at 10 µM (SF-295): < 10%
